# Source: article PMC5607274, “An iterative compound screening contest method for identifying target protein inhibitors using the tyrosine-protein kinase Yes” (Scientific Reports, 2017)
# Molecular target: T1, human recombinant Yes [a.a. 2–543 (end)] (Homo sapiens, UniProt P07947)
# T1 construct: human recombinant Yes [a.a; 2–543 (end)]; purchased BPS Bioscience 40488
# Assay: ADP-Glo kinase assay, inhibition rates of Yes phosphorylation activity (first and second screening)
# Format: biochemical
# Details: first screening; mean of n = 4 wells; 10 μmol L−1 compound
# Outline: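 ADP-Glo luminescence measured inhibition of human recombinant Yes (a.a. 2–543) phosphorylation activity. In the first screen, each compound ran in 4 wells and inhibition rates were averaged. The second screen retested hits as compounds dissolved from fresh powder.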
# T1 sequence (P07947 2-543): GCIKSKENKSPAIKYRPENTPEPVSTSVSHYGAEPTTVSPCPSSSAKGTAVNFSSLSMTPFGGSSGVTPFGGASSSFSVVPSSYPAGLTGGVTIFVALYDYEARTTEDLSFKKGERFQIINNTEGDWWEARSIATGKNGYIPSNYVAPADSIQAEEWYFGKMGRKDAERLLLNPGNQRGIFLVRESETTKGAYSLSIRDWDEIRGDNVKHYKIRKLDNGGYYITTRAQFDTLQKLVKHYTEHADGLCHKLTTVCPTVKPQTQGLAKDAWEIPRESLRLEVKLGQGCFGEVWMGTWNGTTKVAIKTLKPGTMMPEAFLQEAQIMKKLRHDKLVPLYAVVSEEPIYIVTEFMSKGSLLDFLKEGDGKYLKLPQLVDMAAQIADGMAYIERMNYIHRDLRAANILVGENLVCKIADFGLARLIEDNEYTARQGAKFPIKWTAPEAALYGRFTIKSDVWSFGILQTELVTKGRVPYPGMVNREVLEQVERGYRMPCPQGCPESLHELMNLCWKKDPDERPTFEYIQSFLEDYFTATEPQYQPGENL
row,SMILES,First screening IR (inhibition rate) [%]
1,O=C(Nc1n[nH]c(-c2ccc(F)cc2)n1)c1csc2c1CCCC2 [Compound Z119708890],-5
2,Cc1ccc(-c2nc(NC(=O)c3ccc(F)cc3F)n[nH]2)cc1 [Compound Z119762582],-5
3,Cc1ccc2nc(-c3ccc(Nc4nnc(Cc5csc(C)n5)s4)cc3)sc2c1 [Compound Z119992430],40
4,CC(C(=O)N1CCN(S(=O)(=O)c2ccccc2)CC1)N1CCC(C(N)=O)CC1 (centres unmarked) [Compound Z123938232],0
5,Cc1c(C#N)c(NC(=O)CN2CCN(Cc3nc4ccccc4s3)CC2)n(CC2CCCO2)c1C (centres unmarked) [Compound Z125608446],12
6,O=C(CN1CCN(Cc2nc3scc(-c4ccc(F)cc4)c3c(=O)[nH]2)CC1)N1CCCCCC1 [Compound Z126042696],22
7,Cc1ccc(-c2c(C)sc3nc(CN4CCN(CC(=O)N5CCCCCC5)CC4)[nH]c(=O)c23)cc1 [Compound Z126044810],-3
8,Cc1c(C#N)c(NC(=O)CN2CCC(n3c(=O)[nH]c4ccccc43)CC2)n(Cc2ccco2)c1C [Compound Z126941634],9
9,COCCNC(=O)CN1CCN(c2nc(-c3cccnc3)nc3scc(-c4ccccc4)c23)CC1 [Compound Z128012326],9
10,CC(Nc1ccc([N+](=O)[O-])cc1[N+](=O)[O-])c1nnc2ccccn12 (centres unmarked) [Compound Z128086498],-9
11,COc1ccc(-c2csc3nc(C)nc(N4CCCN(CC(=O)NC(C)(C)C)CC4)c23)cc1OC [Compound Z128141646],-7
12,COc1ccc(OC)c2c1CN(c1nc(CN3CCOCC3)nc3sc(C)c(C)c13)CC2O (centres unmarked) [Compound Z128154998],47
13,Cc1c(C#N)c(NC(=O)CN2CCC(n3c(=O)[nH]c4ccccc43)CC2)n(Cc2cccs2)c1C [Compound Z130194258],22
14,CN(C1(C)CCS(=O)(=O)C1)S(=O)(=O)c1ccc(Cl)c(Cl)c1 (centres unmarked) [Compound Z131022412],2
15,Cc1ccc(S(=O)(=O)N(C)C2(C)CCS(=O)(=O)C2)cc1 (centres unmarked) [Compound Z131022526],3
16,CC1(C(=O)N2CCCc3cc(S(=O)(=O)N4CCCC4)ccc32)Cc2ccccc2C(=O)O1 (centres unmarked) [Compound Z131206652],-1
17,COc1ccc(Br)c(C(=O)NCc2ccc(-c3csc(C)n3)cc2)c1 [Compound Z131231284],-17
18,O=C(CCc1cnn(-c2ccccc2)c1)Nc1nc2c(s1)CCCC2 [Compound Z131246512],-5
19,CC1CCN(c2ccc(NC(C)C(=O)Nc3cccc([N+](=O)[O-])c3)cc2)CC1 (centres unmarked) [Compound Z132693290],26
20,CCN(C1CCS(=O)(=O)C1)S(C)(=O)=O (centres unmarked) [Compound Z133704180],8
21,CC(C)CN(C1CCS(=O)(=O)C1)S(C)(=O)=O (centres unmarked) [Compound Z133987698],12
22,Cl.Oc1ccc(O)c(-c2cc(-c3ccccc3Cl)c3cc(Cl)ccc3n2)c1 [Compound Z134829678],25
23,Cc1ccc(OCCSCc2nc(N)nc(Nc3ccc(F)cc3)n2)cc1 [Compound Z135099694],9
24,CSc1ccc(CSCc2nc(N)nc(Nc3ccc(F)cc3)n2)cc1 [Compound Z135100070],-6

# Results, then the compound that gave them:
row,First screening IR (inhibition rate) [%],SMILES
1,6,O=C1NC(c2ccc(OCc3cn4ccccc4n3)cc2)Nc2ccccc21 (centres unmarked) [Compound Z135163592]
2,7,CCn1cc(C(=O)c2cc(Cl)ccc2O)cc1-c1nc2ccccc2c(=O)[nH]1 [Compound Z135358570]
3,9,CC1(CCc2ccccc2)NC(=O)N(NC(=O)c2ccc(-n3cnc4ccccc43)cc2)C1=O (centres unmarked) [Compound Z136752996]
4,2,Cc1ccn2cc(C(=O)NCCCn3nc(C)cc3C)nc2c1 [Compound Z137367324]
5,-9,CCn1c(CNc2ccc3c(C)cc(=O)oc3c2)nc2cc(S(=O)(=O)N3CCCCC3)ccc21 [Compound Z139671368]
6,-9,NC(=O)C1CCN(C(=O)CNc2cc(Cl)ccc2Sc2ccc(F)cc2)CC1 [Compound Z140497072]
7,15,COc1ccccc1-c1nn(-c2ccccc2)cc1C(=O)N1CCN(CC(=O)N2CCCCC2)CC1 [Compound Z145138304]
8,6,Cc1ccc(C(CN2CCOCC2)NC(=O)Cn2cnc3sc(-c4ccccc4)cc3c2=O)cc1 (centres unmarked) [Compound Z146866146]
9,4,Cc1ccc(-c2csc3ncn(CC(=O)NC(CN4CCOCC4)c4ccccc4)c(=O)c23)cc1 (centres unmarked) [Compound Z146890674]
10,14,Cc1noc(C)c1COc1cccc(C(=O)N2CCN(Cc3cc(=O)n4ccsc4n3)CC2)c1 [Compound Z147054608]
11,0,O=C(NCCCOc1ccccc1F)c1ccc2nc[nH]c2c1 [Compound Z147064724]
12,-5,CC(C)n1ncc2c(C(=O)N3CCN(CC(=O)N4CCCCC4)CC3)cc(-c3ccccc3)nc21 [Compound Z147118228]
13,30,CCCCN(C1CCS(=O)(=O)C1)S(=O)(=O)c1ccc(Cl)c(Cl)c1 (centres unmarked) [Compound Z147580066]
14,0,COc1ccc2c(c1)c(CC(=O)OCc1ncc(Cl)n1C)c(C)n2C(=O)c1ccc(Cl)cc1 [Compound Z148531038]
15,9,Cc1ccc(S(=O)(=O)N(C)C2(C)CCS(=O)(=O)C2)cc1C (centres unmarked) [Compound Z150918412]
16,33,CC(Sc1nnc(NCc2ccc(F)cc2)s1)C(=O)N1CCCCCC1 (centres unmarked) [Compound Z151845340]
17,-9,CCC(C)N(CC(=O)Nc1cccc(C)c1C)C(=O)COC(=O)c1cc(C(C)=O)cn1C (centres unmarked) [Compound Z152371002]
18,5,Cc1ccc(-n2c(C)nnc2SCC(=O)Nc2c(C#N)c(C)c(C)n2Cc2ccccc2)cc1 [Compound Z152755906]
19,2,CCOC(=O)c1c(C)oc2ncn(Cc3cccc(F)c3F)c(=O)c12 [Compound Z154098858]
20,7,CN1N=C(C(=O)N2CCN(S(=O)(=O)c3ccccc3C(F)(F)F)CC2)CCC1=O [Compound Z164780402]
21,-3,O=C1CCc2cc(C(=O)Nc3nnc(SCc4c(Cl)cccc4Cl)s3)ccc2N1 [Compound Z164941068]
22,-7,Cc1nc(-c2ccc(CNC(=O)Cc3cccc(F)c3)o2)cs1 [Compound Z164951688]
23,25,Cc1c(C(=O)N2CCN(C(=O)C3CCS(=O)(=O)C3)CC2)[nH]c2c1C(=O)CC(C)(C)C2 (centres unmarked) [Compound Z164965524]
24,3,CC(=O)c1c[nH]c(C(=O)NCCc2ccc(-c3csc(C)n3)s2)c1 [Compound Z165050208]
25,39,O=C(CN1CCN(c2cc(C(=O)N3CCOCC3)c3ccccc3n2)CC1)Nc1ccccc1Cl [Compound Z165229378]

# Same assay, conditions: second screening, dissolved from fresh powder; n = 4; 10 μmol L−1 compound
row,Second screening IR (inhibition rate) [%],SMILES
1,-4,COc1ccc(OC)c2c1CN(c1nc(CN3CCOCC3)nc3sc(C)c(C)c13)CC2O (centres unmarked) [Compound Z128154998]
